Results reported in PubChem BioAssay AID256 (DTP/NCI, 2004).
Where “and” joins values, the source holds several entries; their conditions need not be identical. Identical values can stand only once. Toxic doses and inconclusive results are not listed. Rule for the calls: active = survival T/C of 150% or more; inactive = T/C below 125% in these data.

Test system: CD2F1 mice, L1210 leukemia ip, survival T/C
Experiment: NCI In Vivo Anticancer Drug Screen. Data for tumor model L1210 Leukemia (intraperitoneal) in CD2F1 (CDF1) mice
Conditions: higher = longer survival
Outline: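 Read-out first: treated-group measurement over vehicle-control measurement, expressed as a ratio. Animals bore a transplanted tumor line and were dosed with compound or vehicle.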

[1] = endpoint: mean survival time, dose: 75.0 mg/kg/injection, schedule: Q01DX001 (ip), vehicle: saline
[2] = endpoint: mean survival time, dose: 150.0 mg/kg/injection, schedule: Q01DX001 (ip), vehicle: saline
[3] = endpoint: mean survival time, dose: 100.0 mg/kg/injection, schedule: Q01DX009 (ip), vehicle: saline with Tween-80
[4] = endpoint: mean survival time, dose: 200.0 mg/kg/injection, schedule: Q01DX009 (ip), vehicle: saline with Tween-80
[5] = endpoint: mean survival time, dose: 400.0 mg/kg/injection, schedule: Q01DX009 (ip), vehicle: saline with Tween-80
[6] = endpoint: mean survival time, dose: 25.0 mg/kg/injection, schedule: Q04DX002 (ip), vehicle: saline with Tween-80
[7] = endpoint: mean survival time, dose: 50.0 mg/kg/injection, schedule: Q04DX002 (ip), vehicle: saline with Tween-80
[8] = endpoint: mean survival time, dose: 100.0 mg/kg/injection, schedule: Q04DX002 (ip), vehicle: saline with Tween-80
[9] = endpoint: mean survival time, dose: 200.0 mg/kg/injection, schedule: Q04DX002 (ip), vehicle: saline with Tween-80
[10] = endpoint: mean survival time, dose: 50.0 mg/kg/injection, schedule: Q01DX009 (ip), vehicle: saline with Tween-80
[11] = endpoint: mean survival time, dose: 100.0 mg/kg/injection, schedule: Q01DX001 (ip), vehicle: saline with Tween-80
[12] = endpoint: mean survival time, dose: 200.0 mg/kg/injection, schedule: Q01DX001 (ip), vehicle: saline with Tween-80
[13] = endpoint: mean survival time, dose: 400.0 mg/kg/injection, schedule: Q01DX001 (ip), vehicle: saline with Tween-80

Measured: T/C

CC1(C)N=C(N)N=C(N)N1c1ccc(CCC(=O)Nc2ccc(S(=O)(=O)F)cc2)c(Cl)c1
inactive: endpoint: mean survival time, dose: 6.25 mg/kg/injection, schedule: Q01DX009 (ip), vehicle: saline 104 % of control | endpoint: mean survival time, dose: 6.25 mg/kg/injection, schedule: Q01DX009 (ip), vehicle: water 112 % of control | endpoint: mean survival time, dose: 12.5 mg/kg/injection, schedule: Q01DX009 (ip), vehicle: saline 120 % of control | endpoint: mean survival time, dose: 12.5 mg/kg/injection, schedule: Q01DX009 (ip), vehicle: water 112 % of control | endpoint: mean survival time, dose: 25.0 mg/kg/injection, schedule: Q01DX009 (ip), vehicle: water 119 % of control | endpoint: mean survival time, dose: 50.0 mg/kg/injection, schedule: Q01DX009 (ip), vehicle: saline 120 % of control

CCOC(=O)C(N)CSCc1ccccc1 (stereo not drawn)
inactive: endpoint: mean survival time, dose: 100.0 mg/kg/injection, schedule: Q04DX003 (ip), vehicle: saline 103 % of control | endpoint: mean survival time, dose: 200.0 mg/kg/injection, schedule: Q04DX003 (ip), vehicle: saline 97 % of control | endpoint: mean survival time, dose: 400.0 mg/kg/injection, schedule: Q04DX003 (ip), vehicle: saline 101 % of control

O=C(Oc1ccc(OC(=O)c2ccccc2)c([N+](=O)[O-])c1)c1ccccc1
inactive: [1] 89 % of control | [2] 98 % of control | endpoint: mean survival time, dose: 300.0 mg/kg/injection, schedule: Q01DX001 (ip), vehicle: saline 98 % of control

C=C(Br)CNC(=O)NCCN1CCOCC1
inactive: [3] 97 % of control | [4] 92 % of control | [5] 89 % of control

N#CCc1nn(C2OC(CO)C(O)C2O)nc1C(N)=O (stereo not drawn)
inactive: endpoint: median survival time, dose: 8.5 mg/kg/injection, schedule: Q01DX005 (ip), vehicle: water 103 % of control | endpoint: median survival time, dose: 17.0 mg/kg/injection, schedule: Q01DX005 (ip), vehicle: water 103 % of control | endpoint: median survival time, dose: 34.0 mg/kg/injection, schedule: Q01DX005 (ip), vehicle: water 100 % of control | endpoint: median survival time, dose: 38.0 mg/kg/injection, schedule: Q01DX005 (ip), vehicle: water 97 % of control | endpoint: median survival time, dose: 136.0 mg/kg/injection, schedule: Q01DX005 (ip), vehicle: water 100 % of control

O=C(C#Cc1ccccc1)N1CCCCC1
inactive: [6] 99 % of control | [7] 99 % of control | [8] 101 % of control | [9] 92 % of control

CC/C=C/CCOC(=N)C(Cl)(Cl)Cl
inactive: [10] 92 % of control | [3] 92 % of control | [4] 101 % of control

CCN(CC)c1ccc2c(-c3ccccc3C(=O)O)c3ccc(=[N+](CC)CC)cc-3oc2c1
inactive: endpoint: mean survival time, dose: 5.0 mg/kg/injection, schedule: Q04DX003 (ip), vehicle: saline with Tween-80 105 % of control | endpoint: mean survival time, dose: 10.0 mg/kg/injection, schedule: Q04DX003 (ip), vehicle: saline with Tween-80 105 % of control | endpoint: mean survival time, dose: 20.0 mg/kg/injection, schedule: Q04DX003 (ip), vehicle: saline with Tween-80 102 % of control | [3] 101 % of control | [4] 103 % of control | [5] 100 % of control

O=C(O)CCN1CCCc2ccccc21
inactive: endpoint: mean survival time, dose: 100.0 mg/kg/injection, schedule: Q01DX009 (ip), vehicle: other 109 % of control | endpoint: mean survival time, dose: 100.0 mg/kg/injection, schedule: Q04DX003 (ip), vehicle: other 95 % of control | endpoint: mean survival time, dose: 200.0 mg/kg/injection, schedule: Q01DX009 (ip), vehicle: other 103 % of control | endpoint: mean survival time, dose: 200.0 mg/kg/injection, schedule: Q04DX003 (ip), vehicle: other 107 % of control | endpoint: mean survival time, dose: 400.0 mg/kg/injection, schedule: Q04DX003 (ip), vehicle: other 96 % of control

BrN1CCCCC1
inactive: endpoint: mean survival time, dose: 100.0 mg/kg/injection, schedule: Q04DX002 (ip), vehicle: saline 103 % of control | endpoint: mean survival time, dose: 200.0 mg/kg/injection, schedule: Q04DX002 (ip), vehicle: saline 122 % of control | endpoint: mean survival time, dose: 400.0 mg/kg/injection, schedule: Q04DX002 (ip), vehicle: saline 103 % of control

C=C(Br)CNC(=O)NCC
inactive: endpoint: mean survival time, dose: 25.0 mg/kg/injection, schedule: Q04DX003 (ip), vehicle: saline with Tween-80 94 % of control | endpoint: mean survival time, dose: 50.0 mg/kg/injection, schedule: Q04DX003 (ip), vehicle: saline with Tween-80 105 % of control | endpoint: mean survival time, dose: 100.0 mg/kg/injection, schedule: Q04DX003 (ip), vehicle: saline with Tween-80 100 % of control

CN(C)CCCNc1c2ccccc2nc2cccc([N+](=O)[O-])c12
inactive: endpoint: mean survival time, dose: 0.2 mg/kg/injection, schedule: Q04DX002 (ip), vehicle: saline + alcohol 103 % of control | endpoint: mean survival time, dose: 0.4 mg/kg/injection, schedule: Q04DX002 (ip), vehicle: saline + alcohol 103 % of control | endpoint: mean survival time, dose: 0.8 mg/kg/injection, schedule: Q04DX002 (ip), vehicle: saline + alcohol 100 % of control

CSc1nccc2c1ncn2C1OC(CO)C(O)C1O (stereo not drawn)
inactive: endpoint: mean survival time, dose: 100.0 mg/kg/injection, schedule: Q01DX001 (ip), vehicle: saline 98 % of control | endpoint: mean survival time, dose: 200.0 mg/kg/injection, schedule: Q01DX001 (ip), vehicle: saline 104 % of control | endpoint: mean survival time, dose: 400.0 mg/kg/injection, schedule: Q01DX001 (ip), vehicle: saline 104 % of control

CC1CN(Br)C(=O)N(Br)C1=O (stereo not drawn)
inactive: [1] 102 % of control | [2] 100 % of control

CSc1ccccc1C(=O)OC(C)(C)C
inactive: [11] 96 % of control | [12] 103 % of control | [13] 103 % of control

CCOC(=O)CCC(NC(=O)c1ccc(CN(C)Cc2cnc3nc(N)nc(N)c3n2)cc1)C(=O)OCC (stereo not drawn)
inactive: endpoint: mean survival time, dose: 1.0 mg/kg/injection, schedule: Q01DX009 (ip), vehicle: Klucel (hydroxypropylcellulose) (HPC) 100 % of control | endpoint: mean survival time, dose: 10.0 mg/kg/injection, schedule: Q01DX009 (ip), vehicle: Klucel (hydroxypropylcellulose) (HPC) 108 % of control | endpoint: mean survival time, dose: 25.0 mg/kg/injection, schedule: Q01DX009 (ip), vehicle: Klucel (hydroxypropylcellulose) (HPC) 115 % of control

COC(=O)CCC(=O)Nc1ccccc1C(C)=O
inactive: [3] 101 % of control | [4] 104 % of control | [5] 106 % of control

ClCCN(CCCl)c1ccc(CCCCN2CCOCC2)cc1
inactive: endpoint: mean survival time, dose: 10.0 mg/kg/injection, schedule: Q01DX009 (ip), vehicle: saline 119 % of control | endpoint: mean survival time, dose: 40.0 mg/kg/injection, schedule: Q01DX009 (ip), vehicle: saline 103 % of control

CC(NC(=O)c1ccc(Cl)cc1Cl)c1ccccc1 (stereo not drawn)
inactive: endpoint: mean survival time, dose: 75.0 mg/kg/injection, schedule: Q04DX003 (ip), vehicle: saline with Tween-80 101 % of control | endpoint: mean survival time, dose: 150.0 mg/kg/injection, schedule: Q04DX003 (ip), vehicle: saline with Tween-80 101 % of control | endpoint: mean survival time, dose: 300.0 mg/kg/injection, schedule: Q04DX003 (ip), vehicle: saline with Tween-80 101 % of control

O=C(CC1CCCCN1)CC1CCCCN1 (stereo not drawn)
inactive: endpoint: median survival time, dose: 25.0 mg/kg/injection, schedule: Q04DX003 (ip), vehicle: saline 100 % of control | endpoint: median survival time, dose: 50.0 mg/kg/injection, schedule: Q04DX003 (ip), vehicle: saline 100 % of control | endpoint: median survival time, dose: 100.0 mg/kg/injection, schedule: Q04DX003 (ip), vehicle: saline 90 % of control | endpoint: median survival time, dose: 200.0 mg/kg/injection, schedule: Q04DX003 (ip), vehicle: saline 90 % of control

Nc1nc2c(ncn2-c2ccc(-c3ccccc3)cc2)c(=O)[nH]1
inactive: [11] 93 % of control and 108 % of control | [8] 97 % of control | [12] 87 % of control and 89 % of control | [9] 93 % of control | [13] 93 % of control | endpoint: mean survival time, dose: 400.0 mg/kg/injection, schedule: Q04DX002 (ip), vehicle: saline with Tween-80 89 % of control

O=C1CSC1=C(c1ccccc1)c1ccccc1
inactive: endpoint: mean survival time, dose: 12.5 mg/kg/injection, schedule: Q04DX002 (ip), vehicle: saline with Tween-80 94 % of control | [6] 94 % of control | [7] 94 % of control

CC(C)(C)CC(C)(C)c1ccc(OCCOC(=O)c2ccccc2C(=O)O)cc1
inactive: endpoint: mean survival time, dose: 100.0 mg/kg/injection, schedule: Q01DX001 (ip), vehicle: Klucel (hydroxypropylcellulose) (HPC) 90 % of control

OC(c1ccccc1)(C1SCCCS1)C1SCCCS1
inactive: [10] 94 % of control | [3] 97 % of control | [4] 94 % of control

CCN(N=O)C(=O)Nc1ccc(C2CC(=O)N(C)C2=O)cc1 (stereo not drawn)
inactive: endpoint: mean survival time, dose: 12.5 mg/kg/injection, schedule: Q01DX001 (ip), vehicle: distilled water + Tween-80 99 % of control | endpoint: mean survival time, dose: 25.0 mg/kg/injection, schedule: Q01DX001 (ip), vehicle: distilled water + Tween-80 111 % of control | endpoint: mean survival time, dose: 50.0 mg/kg/injection, schedule: Q01DX001 (ip), vehicle: distilled water + Tween-80 94 % of control and 98 % of control and 108 % of control | endpoint: mean survival time, dose: 100.0 mg/kg/injection, schedule: Q01DX001 (ip), vehicle: distilled water + Tween-80 122 % of control and 94 % of control and 96 % of control | endpoint: mean survival time, dose: 200.0 mg/kg/injection, schedule: Q01DX001 (ip), vehicle: distilled water + Tween-80 99 % of control and 101 % of control
